Assay results: US20240415914A1, “Water Dispersible Cannabinoid Compositions” (priority 2021, published 2024)
Where two headings read alike, the source gives them in different places.

Columns and labels:
[1] = assay type: physicochemical; conditions: stored at room temperature (21-25° C.)
Procedure: At each time period, 0.05 g of powder was dissolved in 10 ml-15 of ethanol, diluted to fall within the analytical range, and injected into the LCMSMS for analysis.

[2] = Stability of cannabinoid and Vitamin E components of Beverage 2 (AB Red) stored at 8° C. and 21-25° C., LCMSMS over 570 days

For `CC(=O)Oc1c(C)c(C)c2c(c1C)CCC(C)(CCC[C@H](C)CCC[C@H](C)CCCC(C)C)O2` (stereo partly drawn) [α-Tocopheryl acetate], the “Stability in Powder Concentrate (content by LCMSMS)” value (“Stability in Powder Concentrate” for short) ([1]; day 0) was 2.15 mg/g powder, the “Stability in Powder Concentrate” value ([1]; day 1) was 2.19 mg/g powder and the “Stability in Powder Concentrate” value ([1]; day 2) was 2.11 mg/g powder. For the same molecule, the “Stability in Powder Concentrate” value ([1]; day 3) was 2.18 mg/g powder, the “Stability in Powder Concentrate” value ([1]; day 5) was 2.24 mg/g powder and the “Stability in Powder Concentrate” value ([1]; day 8) was 2.23 mg/g powder. The “Stability in Powder Concentrate” value ([1]; day 9) was 2.09 mg/g powder, the “Stability in Powder Concentrate” value ([1]; day 10) was 2.09 mg/g powder and the “Stability in Powder Concentrate” value ([1]; day 11) was 2.20 mg/g powder. The “Stability in Powder Concentrate” value ([1]; day 12) was 2.17 mg/g powder, the “Stability in Powder Concentrate” value ([1]; day 15) was 2.24 mg/g powder and the “Stability in Powder Concentrate” value ([1]; day 16) was 2.15 mg/g powder. The “Stability in Powder Concentrate” value ([1]; day 17) was 2.13 mg/g powder, the “Stability in Powder Concentrate” value ([1]; day 18) was 2.10 mg/g powder and the “Stability in Powder Concentrate” value ([1]; day 19) was 2.21 mg/g powder. The “Stability in Powder Concentrate” value ([1]; day 22) was 2.11 mg/g powder, the “Stability in Powder Concentrate” value ([1]; day 23) was 2.16 mg/g powder and the “Stability in Powder Concentrate” value ([1]; day 24) was 2.09 mg/g powder. For the same molecule, the “Stability in Powder Concentrate” value ([1]; day 25) was 2.24 mg/g powder, the “Stability in Powder Concentrate” value ([1]; day 26) was 2.10 mg/g powder and the “Stability in Powder Concentrate” value ([1]; day 29) was 2.21 mg/g powder. For the same molecule, the “Stability in Powder Concentrate” value ([1]; day 30) was 2.08 mg/g powder, the “Stability in Powder Concentrate” value ([1]; day 60) was 2.15 mg/g powder and the “Stability in Powder Concentrate” value ([1]; day 90) was 2.24 mg/g powder. The “Stability in Powder Concentrate” value ([1]; day 120) was 2.17 mg/g powder, the “Stability in Powder Concentrate” value ([1]; day 150) was 2.18 mg/g powder and the “Stability in Powder Concentrate” value ([1]; day 180) was 2.20 mg/g powder. For the same molecule, the “Stability in Powder Concentrate” value ([1]; day 210) was 2.15 mg/g powder, the “Stability in Powder Concentrate” value ([1]; day 240) was 2.23 mg/g powder and the “Stability in Powder Concentrate” value ([1]; day 270) was 2.13 mg/g powder. The “Stability in Powder Concentrate” value ([1]; day 300) was 2.09 mg/g powder, the “Stability in Powder Concentrate” value ([1]; day 330) was 2.15 mg/g powder and the “Stability in Powder Concentrate” value ([1]; day 360) was 2.12 mg/g powder. The “Stability in Powder Concentrate” value ([1]; day 390) was 2.21 mg/g powder, the “Stability in Powder Concentrate” value ([1]; day 420) was 2.21 mg/g powder and the “Stability in Powder Concentrate” value ([1]; day 450) was 2.07 mg/g powder. For the same molecule, the “Stability in Powder Concentrate” value ([1]; day 480) was 2.10 mg/g powder, the “Stability in Powder Concentrate” value ([1]; day 510) was 2.15 mg/g powder and the “Stability in Powder Concentrate” value ([1]; day 540) was 2.21 mg/g powder. For the same molecule, the “Stability in Powder Concentrate” value ([1]; day 570) was 2.13 mg/g powder, the “Stability of Vitamin Es in AB Red” value ([2]; 8° C., 0 days) was 12.5 µg/mL and the “Stability of Vitamin Es in AB Red” value ([2]; 8° C., 1 days) was 11.6 µg/mL. For the same molecule, the “Stability of Vitamin Es in AB Red” value ([2]; 8° C., 2 days) was 11.5 µg/mL, the “Stability of Vitamin Es in AB Red” value ([2]; 8° C., 3 days) was 11.6 µg/mL and the “Stability of Vitamin Es in AB Red” value ([2]; 8° C., 5 days) was 12.3 µg/mL. For the same molecule, the “Stability of Vitamin Es in AB Red” value ([2]; 8° C., 8 days) was 12.2 µg/mL, the “Stability of Vitamin Es in AB Red” value ([2]; 8° C., 9 days) was 12.1 µg/mL and the “Stability of Vitamin Es in AB Red” value ([2]; 8° C., 10 days) was 12.6 µg/mL. The “Stability of Vitamin Es in AB Red” value ([2]; 8° C., 11 days) was 11.9 µg/mL, the “Stability of Vitamin Es in AB Red” value ([2]; 8° C., 12 days) was 12.4 µg/mL and the “Stability of Vitamin Es in AB Red” value ([2]; 8° C., 15 days) was 12.0 µg/mL. The “Stability of Vitamin Es in AB Red” value ([2]; 8° C., 16 days) was 11.5 µg/mL, the “Stability of Vitamin Es in AB Red” value ([2]; 8° C., 17 days) was 11.8 µg/mL and the “Stability of Vitamin Es in AB Red” value ([2]; 8° C., 18 days) was 12.5 µg/mL. For the same molecule, the “Stability of Vitamin Es in AB Red” value ([2]; 8° C., 19 days) was 12.5 µg/mL, the “Stability of Vitamin Es in AB Red” value ([2]; 8° C., 22 days) was 12.5 µg/mL and the “Stability of Vitamin Es in AB Red” value ([2]; 8° C., 23 days) was 11.9 µg/mL. The “Stability of Vitamin Es in AB Red” value ([2]; 8° C., 24 days) was 12.6 µg/mL, the “Stability of Vitamin Es in AB Red” value ([2]; 8° C., 25 days) was 12.3 µg/mL and the “Stability of Vitamin Es in AB Red” value ([2]; 8° C., 26 days) was 11.6 µg/mL. For the same molecule, the “Stability of Vitamin Es in AB Red” value ([2]; 8° C., 29 days) was 11.7 µg/mL, the “Stability of Vitamin Es in AB Red” value ([2]; 8° C., 30 days) was 12.1 µg/mL and the “Stability of Vitamin Es in AB Red” value ([2]; 8° C., 60 days) was 11.4 µg/mL. For the same molecule, the “Stability of Vitamin Es in AB Red” value ([2]; 8° C., 90 days) was 11.6 µg/mL, the “Stability of Vitamin Es in AB Red” value ([2]; 8° C., 120 days) was 11.7 µg/mL and the “Stability of Vitamin Es in AB Red” value ([2]; 8° C., 150 days) was 12.3 µg/mL. The “Stability of Vitamin Es in AB Red” value ([2]; 8° C., 180 days) was 12.6 µg/mL, the “Stability of Vitamin Es in AB Red” value ([2]; 8° C., 210 days) was 11.8 µg/mL and the “Stability of Vitamin Es in AB Red” value ([2]; 8° C., 240 days) was 11.2 µg/mL. The “Stability of Vitamin Es in AB Red” value ([2]; 8° C., 270 days) was 11.6 µg/mL, the “Stability of Vitamin Es in AB Red” value ([2]; 8° C., 300 days) was 11.2 µg/mL and the “Stability of Vitamin Es in AB Red” value ([2]; 8° C., 330 days) was 11.3 µg/mL. For the same molecule, the “Stability of Vitamin Es in AB Red” value ([2]; 8° C., 390 days) was 11.4 µg/mL, the “Stability of Vitamin Es in AB Red” value ([2]; 8° C., 420 days) was 11.2 µg/mL and the “Stability of Vitamin Es in AB Red” value ([2]; 8° C., 450 days) was 11.4 µg/mL. For the same molecule, the “Stability of Vitamin Es in AB Red” value ([2]; 8° C., 480 days) was 10.7 µg/mL, the “Stability of Vitamin Es in AB Red” value ([2]; 8° C., 510 days) was 10.6 µg/mL and the “Stability of Vitamin Es in AB Red” value ([2]; 8° C., 540 days) was 10.8 µg/mL. The “Stability of Vitamin Es in AB Red” value ([2]; 8° C., 570 days) was 10.8 µg/mL, the “Stability of Vitamin Es in AB Red” value ([2]; 21-25° C., 0 days) was 12.5 µg/mL and the “Stability of Vitamin Es in AB Red” value ([2]; 21-25° C., 1 days) was 12.1 µg/mL. The “Stability of Vitamin Es in AB Red” value ([2]; 21-25° C., 2 days) was 12.5 µg/mL, the “Stability of Vitamin Es in AB Red” value ([2]; 21-25° C., 3 days) was 11.7 µg/mL and the “Stability of Vitamin Es in AB Red” value ([2]; 21-25° C., 5 days) was 12.2 µg/mL. The “Stability of Vitamin Es in AB Red” value ([2]; 21-25° C., 8 days) was 11.4 µg/mL, the “Stability of Vitamin Es in AB Red” value ([2]; 21-25° C., 9 days) was 11.6 µg/mL and the “Stability of Vitamin Es in AB Red” value ([2]; 21-25° C., 10 days) was 12.5 µg/mL. For the same molecule, the “Stability of Vitamin Es in AB Red” value ([2]; 21-25° C., 11 days) was 12.3 µg/mL, the “Stability of Vitamin Es in AB Red” value ([2]; 21-25° C., 12 days) was 12.3 µg/mL and the “Stability of Vitamin Es in AB Red” value ([2]; 21-25° C., 15 days) was 12.1 µg/mL. For the same molecule, the “Stability of Vitamin Es in AB Red” value ([2]; 21-25° C., 16 days) was 12.1 µg/mL, the “Stability of Vitamin Es in AB Red” value ([2]; 21-25° C., 17 days) was 11.3 µg/mL and the “Stability of Vitamin Es in AB Red” value ([2]; 21-25° C., 18 days) was 12.0 µg/mL. For the same molecule, the “Stability of Vitamin Es in AB Red” value ([2]; 21-25° C., 19 days) was 12.0 µg/mL, the “Stability of Vitamin Es in AB Red” value ([2]; 21-25° C., 22 days) was 12.1 µg/mL and the “Stability of Vitamin Es in AB Red” value ([2]; 21-25° C., 23 days) was 11.7 µg/mL. For the same molecule, the “Stability of Vitamin Es in AB Red” value ([2]; 21-25° C., 24 days) was 11.5 µg/mL, the “Stability of Vitamin Es in AB Red” value ([2]; 21-25° C., 25 days) was 12.4 µg/mL and the “Stability of Vitamin Es in AB Red” value ([2]; 21-25° C., 26 days) was 12.0 µg/mL. For the same molecule, the “Stability of Vitamin Es in AB Red” value ([2]; 21-25° C., 29 days) was 11.9 µg/mL, the “Stability of Vitamin Es in AB Red” value ([2]; 21-25° C., 30 days) was 12.6 µg/mL and the “Stability of Vitamin Es in AB Red” value ([2]; 21-25° C., 60 days) was 11.6 µg/mL. For the same molecule, the “Stability of Vitamin Es in AB Red” value ([2]; 21-25° C., 90 days) was 12.3 µg/mL, the “Stability of Vitamin Es in AB Red” value ([2]; 21-25° C., 120 days) was 12.3 µg/mL and the “Stability of Vitamin Es in AB Red” value ([2]; 21-25° C., 150 days) was 11.4 µg/mL. The “Stability of Vitamin Es in AB Red” value ([2]; 21-25° C., 180 days) was 12.0 µg/mL, the “Stability of Vitamin Es in AB Red” value ([2]; 21-25° C., 210 days) was 11.6 µg/mL and the “Stability of Vitamin Es in AB Red” value ([2]; 21-25° C., 240 days) was 11.3 µg/mL. For the same molecule, the “Stability of Vitamin Es in AB Red” value ([2]; 21-25° C., 270 days) was 11.4 µg/mL, the “Stability of Vitamin Es in AB Red” value ([2]; 21-25° C., 300 days) was 11.2 µg/mL and the “Stability of Vitamin Es in AB Red” value ([2]; 21-25° C., 330 days) was 11.6 µg/mL. The “Stability of Vitamin Es in AB Red” value ([2]; 21-25° C., 390 days) was 11.3 µg/mL, the “Stability of Vitamin Es in AB Red” value ([2]; 21-25° C., 420 days) was 11.3 µg/mL and the “Stability of Vitamin Es in AB Red” value ([2]; 21-25° C., 450 days) was 11.2 µg/mL. For the same molecule, the “Stability of Vitamin Es in AB Red” value ([2]; 21-25° C., 480 days) was 10.4 µg/mL, the “Stability of Vitamin Es in AB Red” value ([2]; 21-25° C., 510 days) was 10.4 µg/mL and the “Stability of Vitamin Es in AB Red” value ([2]; 21-25° C., 540 days) was 10.6 µg/mL. For the same molecule, the “Stability of Vitamin Es in AB Red” value ([2]; 21-25° C., 570 days) was 10.6 µg/mL.
